Test results as given in patent publication US10254456B2, “Polarizing plate composition, polarizing plate protective film, polarizer, polarizing plate, and liquid crystal display device” (FUJIFILM Corporation, priority 2014, dated 2019).

experiment: Solubility of additive in water; type: physicochemical; conditions: 100 ml of pure water at 25° C.
Experimental: The amount of the additive dissolving in 100 ml of pure water at 25° C. was measured and evaluated according to the following criteria.

| Compound | Solubility in water |
| --- | --- |
| O=C1NNC(=O)C1c1ccccc1 [2-1] | A (The amount of the additive dissolving in 100 ml of pure water was equal to or greater than 3 g and less than 5 g.) |
| CC(C)C1C(=O)NNC1=O [2-3] | A (The amount of the additive dissolving in 100 ml of pure water was equal to or greater than 3 g and less than 5 g.) |
| CC(=O)C(Cc1ccccc1S(=O)(=O)[O-])C(=O)c1ccccc1.[Na+] (stereo not drawn) [3-2] | A+ (The amount of the additive dissolving in 100 ml of pure water was equal to or greater than 5 g.) |
| CC1(C)CC(=O)C(Cc2ccccc2S(=O)(=O)O)C(=O)C1 [3-3] | A+ (The amount of the additive dissolving in 100 ml of pure water was equal to or greater than 5 g.) |
| O=C1c2ccccc2C(=O)C1Cc1ccccc1S(=O)(=O)O [3-4] | A+ (The amount of the additive dissolving in 100 ml of pure water was equal to or greater than 5 g.) |
| O=C1C(Cc2ccccc2S(=O)(=O)[O-])C(=O)N(c2ccccc2)N1c1ccccc1.[Na+] [3-6] | A+ (The amount of the additive dissolving in 100 ml of pure water was equal to or greater than 5 g.) |
| CN1C(=O)C(Cc2ccccc2S(=O)(=O)[O-])C(=O)c2ccccc21.[Na+] (stereo not drawn) [3-7] | A+ (The amount of the additive dissolving in 100 ml of pure water was equal to or greater than 5 g.) |
| O=C1Nc2ccccc2NC(=O)C1Cc1ccc(S(=O)(=O)[O-])cc1S(=O)(=O)O.[Na+] [3-8] | A+ (The amount of the additive dissolving in 100 ml of pure water was equal to or greater than 5 g.) |
| O=C1C(Cc2ccc(S(=O)(=O)[O-])cc2S(=O)(=O)O)C(=O)N2CCCCN12.[Na+] [3-9] | A+ (The amount of the additive dissolving in 100 ml of pure water was equal to or greater than 5 g.) |
| O=C1CN(c2ccccc2)C(=O)C1Cc1ccccc1S(=O)(=O)O (stereo not drawn) [3-10] | A+ (The amount of the additive dissolving in 100 ml of pure water was equal to or greater than 5 g.) |
| O=Cc1ccc(CC2C(=O)N(c3ccccc3)N(c3ccc(S(=O)(=O)[O-])cc3)C2=O)cc1.[Na+] (stereo not drawn) [5-1] | A+ (The amount of the additive dissolving in 100 ml of pure water was equal to or greater than 5 g.) |
| O=CC1C(=O)N(c2ccccc2)N(c2ccc(S(=O)(=O)[O-])cc2)C1=O.[Na+] (stereo not drawn) [5-5] | A+ (The amount of the additive dissolving in 100 ml of pure water was equal to or greater than 5 g.) |
| O=C1NC(=O)N(Cc2ccccc2)C(=O)C1c1ccccc1 (stereo not drawn) [Organic acid 1, reference compound] | C (The amount of the additive dissolving in 100 ml of pure water was less than 1 g.) |
| Nc1c(F)c(F)c(C(=O)O)c(F)c1F [Organic acid 2, reference compound] | A (The amount of the additive dissolving in 100 ml of pure water was equal to or greater than 3 g and less than 5 g.) |
| [Cl-].[Cl-].[Zn+2] [ZnCl2, reference compound] | A+ (The amount of the additive dissolving in 100 ml of pure water was equal to or greater than 5 g.) |
